The text below walks through data of publication PMC5537602, “TRPA1 channel mediates organophosphate-induced delayed neuropathy” (Cell Discovery, 2017).

One data set deals with T1, cTRPA1 (Gallus gallus, UniProt W8VTH6).
T1 sequence (W8VTH6 1-1126): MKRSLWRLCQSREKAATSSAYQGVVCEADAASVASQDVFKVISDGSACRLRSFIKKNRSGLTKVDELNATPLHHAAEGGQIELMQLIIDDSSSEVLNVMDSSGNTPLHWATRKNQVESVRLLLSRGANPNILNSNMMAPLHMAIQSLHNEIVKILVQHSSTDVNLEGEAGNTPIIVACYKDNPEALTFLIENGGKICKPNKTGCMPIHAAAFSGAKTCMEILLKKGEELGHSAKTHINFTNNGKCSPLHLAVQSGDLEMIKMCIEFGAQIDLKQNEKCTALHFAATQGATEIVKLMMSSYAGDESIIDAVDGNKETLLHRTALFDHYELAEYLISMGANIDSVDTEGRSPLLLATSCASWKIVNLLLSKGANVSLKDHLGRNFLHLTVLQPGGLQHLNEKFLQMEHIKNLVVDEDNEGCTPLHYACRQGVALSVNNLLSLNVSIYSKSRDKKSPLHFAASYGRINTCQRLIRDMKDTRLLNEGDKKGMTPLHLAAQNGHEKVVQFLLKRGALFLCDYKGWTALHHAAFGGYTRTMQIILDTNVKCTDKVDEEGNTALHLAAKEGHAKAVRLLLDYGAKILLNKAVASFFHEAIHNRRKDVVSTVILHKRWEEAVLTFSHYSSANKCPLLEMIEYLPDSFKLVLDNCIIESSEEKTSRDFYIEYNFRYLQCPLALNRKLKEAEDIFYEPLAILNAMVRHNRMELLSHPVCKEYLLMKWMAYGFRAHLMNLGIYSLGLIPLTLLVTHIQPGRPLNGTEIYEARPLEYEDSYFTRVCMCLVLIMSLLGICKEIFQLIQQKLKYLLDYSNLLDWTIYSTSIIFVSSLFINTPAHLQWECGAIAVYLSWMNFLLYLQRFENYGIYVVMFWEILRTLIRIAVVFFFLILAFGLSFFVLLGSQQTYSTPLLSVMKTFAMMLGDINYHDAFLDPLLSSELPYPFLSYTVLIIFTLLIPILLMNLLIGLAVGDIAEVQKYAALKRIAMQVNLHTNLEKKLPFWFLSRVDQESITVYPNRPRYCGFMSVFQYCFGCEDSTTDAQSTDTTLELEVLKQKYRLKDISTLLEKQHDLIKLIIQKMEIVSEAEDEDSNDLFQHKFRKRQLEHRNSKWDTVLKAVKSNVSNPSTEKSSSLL
The experiment in a line: Whole-cell patch-clamp, HEK293 cells expressing cTRPA1. Type of data set: cell-based, chicken. The method, then:
All cell culture reagents were purchased from Life Technologies. HEK293 cells were transfected transiently with the corresponding plasmids using lipofectamine 2000 (Life Technologies). Transfection efficiency was monitored by co-transfecting EGFP plasmid which codes for the enhanced green fluorescent protein. Electrophysiological recordings were performed between 24 and 36 h after transfection.
Whole-cell patch-clamp recordings in DRG neurons (small diameter, […]) and HEK293 cells were operated at room temperature (23–25 °C) using EPC-10 amplifier and Patch Master Software (HEKA). […] Currents were sampled at 10 kHz and low-pass filtered at 2.9 kHz. […] The calcium-free external solution contained (in mM) 140 NaCl, 5 KCl, 0.5 EGTA, 1 MgCl2, 10 Glucose and 10 HEPES, with pH adjusted to 7.4 by NaOH and osmolarity 300–310 mOsm. The 0.5 mM EGTA was replaced by 2 mM CaCl2 for the recordings in DRG neurons. TRPA1 currents development was monitored with repetitive injections of 300 ms duration voltage ramps from −100 to +100 mV every 2 s and the holding potential was set to 0 mV for 50 ms, existing in both sides of the voltage ramp. To record inward currents in DRG neurons, we conducted voltage clamp at holding membrane potential of −70 mV. Solutions were switched using a gravity-fed continuous focal perfusion system.
For orientation: Patch clamp records ionic current or voltage across a cell membrane.

Another data set deals with hens. The experiment in a line: Transmission electron microscopy of hen spinal cord and sciatic nerve. Type of data set: in vivo. The method, then: For hens, the animals were anesthetized with sodium pentobarbital (100 mg kg^−1) and killed 21 days after exposure to TOCP and malathion. They were then perfused with normal saline followed immediately by 4% paraformaldehyde. The lumbar spinal cord at approximately the L2-L3 level and the sciatic nerve of the left leg were removed and fixed by immersion in ice-cold 2.5% glutaraldehyde. Subsequently, the samples were post-fixed in 1% OsO4 for 1 h, dehydrated with the ethanol series, and embedded in epon resin. Sixty-nanometer ultra-thin sections were double stained with lead citrate and uranyl acetate and examined with an electron microscopy.

SMILES strings stand for the structures.

A word on the EC50: it is the concentration that produces a half-maximal response. A lower EC50 goes with higher potency in that assay.

Turning to `CCOC(=O)CC(SP(=S)(OC)OC)C(=O)OCC` (stereo not drawn) [malathion, S-[1,2-bis (ethoxycarbonyl)ethyl] O, O-dimethyl phosphorodithioate], the midpoint of the response at cTRPA1, the EC50, lay at 10.8 ± 1.68 µM. Moreover, the “activation of cTRPA1 whole-cell currents” value at cTRPA1 (calcium-free external solution) was “large activation current”. In addition, in the data set with hens (21 days after exposure), the “damage of spinal cord and sciatic nerve (TEM)” value is “severely damaged the spinal cord and sciatic nerve”.
As for `CC(C)c1ccc(NC(=O)Cn2cnc3c2c(=O)n(C)c(=O)n3C)cc1` [HC030031], at cTRPA1 (10 μM HC030031), the “block of malathion-elicited cTRPA1 currents” value is recorded as “blocked”. Further, the “effect on TOCP- or malathion-induced nerve injuries (TEM)” value with hens (HC030031 100 mg kg−1) was “significantly reduced”.
